From the supplement of paper PMC10307832

Tests used:
Assay in all cases: relative viability (nuclei count vs DMSO), 5 days (fraction); higher = more cells survive
[1] = compound: CCC1=CN=CN=C1N2CCN(CC2)CC3=NC4=C(N3)C=C(C=C4)C(F)(F)F + CC(=O)Nc1cccc(-n2c(=O)n(C3CC3)c(=O)c3c(Nc4ccc(I)cc4F)n(C)c(=O)c(C)c32)c1 [Trametinib] (partner 0.02 µM)
How it was run: (§1)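 One day after seeding in 1536-well plates, lung cancer cell lines were dosed by pin tool. Dosing was either single-drug or a fixed anchor-drug dose plus five library-drug doses (not always all listed) in √10 steps. After 5 days, nuclei were stained in one fix-and-stain step and counted on 4× images, and relative viability is the nuclei count of treated wells over that of vehicle wells, given as the median of duplicate plates.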

[2] = compound: N=C1NC(=O)/C(=C/c2ccc(O)cc2)S1 [Mirin] + N=C(N)NC(=N)NCCc1ccccc1 [Phenformin] (partner 250 µM)
How it was run: as §1

[3] = compound: CCn1c(-c2nonc2N)nc2cnc(Oc3cccc(NC(=O)c4ccc(OCCN5CCOCC5)cc4)c3)cc21 + Cc1nc(NC(=O)N2CCC[C@H]2C(N)=O)sc1-c1ccnc(C(C)(C)C(F)(F)F)c1 [Alpelisib] (partner 2 µM)
How it was run: as §1

[4] = compound: CCC1=CN=CN=C1N2CCN(CC2)CC3=NC4=C(N3)C=C(C=C4)C(F)(F)F + CS(=O)(=O)N1CCN(Cc2cc3nc(-c4cccc5[nH]ncc45)nc(N4CCOCC4)c3s2)CC1 [Pictilisib] (partner 1 µM)
How it was run: as §1

Row | Cell Line | relative viability ([1]; first compound 0.04 µM) | relative viability ([1]; first compound 0.1265 µM) | relative viability ([1]; first compound 0.4 µM) | relative viability ([1]; first compound 1.265 µM) | relative viability ([1]; first compound 4 µM) | relative viability ([2]; first compound 0.25 µM) | relative viability ([2]; first compound 0.7906 µM) | relative viability ([2]; first compound 2.5 µM) | relative viability ([2]; first compound 7.906 µM) | relative viability ([2]; first compound 25 µM) | relative viability ([3]; first compound 0.04 µM) | relative viability ([3]; first compound 0.1265 µM) | relative viability ([3]; first compound 0.4 µM) | relative viability ([3]; first compound 1.265 µM) | relative viability ([3]; first compound 4 µM) | relative viability ([4]; first compound 0.04 µM) | relative viability ([4]; first compound 0.1265 µM) | relative viability ([4]; first compound 0.4 µM) | relative viability ([4]; first compound 1.265 µM) | relative viability ([4]; first compound 4 µM)
1 | NCI-H1666 | 0.892 | 0.825 | 0.877 | 0.879 | 0.792 | 0.568 | 0.62 | 0.598 | 0.539 | 0.49 | 1.45 | 1.21 | 1.06 | 0.606 | 0.513 | 0.569 | 0.402 | 0.417 | 0.498 | 0.501
2 | NCI-H1734 | 0.581 | 0.668 | 0.604 | 0.65 | 0.709 | 0.395 | 0.324 | 0.35 | 0.394 | 0.352 | 0.802 | 0.708 | 0.513 | 0.571 | 0.402 | 0.387 | 0.449 | 0.431 |  | 0.473
3 | NCI-H1755 | 0.828 | 0.769 | 0.759 | 0.68 | 0.799 | 0.617 | 0.595 | 0.683 | 0.63 | 0.678 | 0.975 | 1.01 | 0.923 | 0.872 | 0.882 | 0.384 | 0.377 | 0.372 | 0.19 | 0.371
4 | NCI-H1792 | 0.585 | 0.389 | 0.403 |  | 0.522 | 0.351 | 0.369 | 0.306 | 0.245 | 0.264 | 0.84 | 0.773 |  | 0.551 | 0.629 | 0.361 | 0.3 | 0.215 | 0.188 | 0.25
5 | NCI-H1793 | 0.459 | 0.4 | 0.397 | 0.362 | 0.349 | 0.447 |  | 0.362 | 0.287 | 0.374 | 0.639 | 0.671 | 0.662 | 0.652 | 0.599 | 0.329 | 0.304 | 0.428 |  | 0.328
6 | NCI-H1915 | 0.286 | 0.337 | 0.293 | 0.248 | 0.287 | 0.353 |  | 0.364 | 0.356 | 0.386 | 1.03 | 1.09 | 1.03 | 1.08 | 1.04 | 0.916 | 0.899 | 0.931 | 0.687 | 0.963
7 | NCI-H1944 | 0.519 | 0.406 | 0.4 | 0.324 | 0.352 | 0.206 | 0.227 | 0.186 | 0.169 | 0.167 | 0.934 | 0.809 |  | 0.781 | 0.789 | 0.361 | 0.335 | 0.325 |  | 0.328
8 | NCI-H1975 | 0.36 | 0.342 | 0.319 | 0.309 | 0.422 | 0.448 | 0.375 | 0.452 | 0.452 | 0.425 | 0.548 | 0.439 | 0.401 | 0.221 | 0.202 | 0.311 | 0.307 | 0.268 | 0.287 | 0.288
9 | NCI-H1993 | 0.493 | 0.658 | 0.552 | 0.549 | 0.644 | 0.459 |  | 0.517 | 0.586 | 0.623 | 0.758 | 0.77 |  | 0.719 | 0.668 | 0.837 | 0.808 | 0.708 | 0.765 | 0.834
